Source: publication PMC5218480 (PLoS ONE, 2017)

Tested on: MV-4-11 cells
Experiment: Gene expression microarray analysis (Affymetrix PrimeView) and GSEA
Type: cell-based, human
Set-up: RFU PODN (11730768_x_at) / Fold change /veh PODN (11730768_x_at) / RFU LINC00158 (11744669_a_at) / Fold change /veh LINC00158 (11744669_a_at) / RFU DUSP10 (11751237_a_at) / Fold change /veh DUSP10 (11751237_a_at) / RFU ID3 (11757404_x_at) / Fold change /veh ID3 (11757404_x_at) / RFU PLEKHG5 (11737974_s_at) / Fold change /veh PLEKHG5 (11737974_s_at) / RFU LRRC4B (11730491_at) / Fold change /veh LRRC4B (11730491_at) / RFU GIMAP4 (11747438_a_at) / Fold change /veh GIMAP4 (11747438_a_at) / RFU KRT8 (11758183_x_at) / Fold change /veh KRT8 (11758183_x_at) / RFU CNN1 (11734310_a_at) / Fold change /veh CNN1 (11734310_a_at) / RFU VPS37D (11726825_at) / Fold change /veh VPS37D (11726825_at) / RFU C10orf10 (11716522_x_at) / Fold change /veh C10orf10 (11716522_x_at) / RFU KIR2DL2 /// KIR2DL4 /// KIR2DL5A /// KIR2DL5B /// KIR2DS1 /// KIR2DS2 /// KIR2DS3 /// KIR2DS4 /// KIR3DL3 /// KIR3DL3 /// KIR3DS1 (11738374_at) / Fold change /veh KIR2DL2 /// KIR2DL4 /// KIR2DL5A /// KIR2DL5B /// KIR2DS1 /// KIR2DS2 /// KIR2DS3 /// KIR2DS4 /// KIR3DL3 /// KIR3DL3 /// KIR3DS1 (11738374_at) / RFU C1QL1 (11718748_at) / Fold change /veh C1QL1 (11718748_at) / RFU TMPRSS4 (11747572_a_at) / Fold change /veh TMPRSS4 (11747572_a_at) / RFU HAMP (11756126_x_at) / Fold change /veh HAMP (11756126_x_at) / RFU RNFT2 (11725882_a_at) / Fold change /veh RNFT2 (11725882_a_at) / RFU NR4A2 (11747474_a_at) / Fold change /veh NR4A2 (11747474_a_at) / RFU ABCC12 (11746883_a_at) / Fold change /veh ABCC12 (11746883_a_at) / RFU TMEM136 (11760407_x_at) / Fold change /veh TMEM136 (11760407_x_at) / RFU CLDN22 /// WWC2 (11732394_at) / Fold change /veh CLDN22 /// WWC2 (11732394_at) / RFU HLA-DPB1 (11760878_x_at) / Fold change /veh HLA-DPB1 (11760878_x_at) / RFU SPINT1 (11716480_a_at) / Fold change /veh SPINT1 (11716480_a_at) / RFU GAP43 (11754022_s_at) / Fold change /veh GAP43 (11754022_s_at) / RFU A4GNT (11735810_at) / Fold change /veh A4GNT (11735810_at) / RFU PRB3 (11715151_x_at) / Fold change /veh PRB3 (11715151_x_at) / RFU TUBB4B (11761932_at) / Fold change /veh TUBB4B (11761932_at) / RFU CAPN14 (11732068_a_at) / Fold change /veh CAPN14 (11732068_a_at) / RFU TMCC2 (11721928_a_at) / Fold change /veh TMCC2 (11721928_a_at) / RFU IRGQ (11745062_a_at) / Fold change /veh IRGQ (11745062_a_at) / RFU FAM174B (11720279_a_at) / Fold change /veh FAM174B (11720279_a_at) / RFU TMPRSS4 (11748680_a_at) / Fold change /veh TMPRSS4 (11748680_a_at) / RFU FAM212B (11763350_a_at) / Fold change /veh FAM212B (11763350_a_at) / RFU PLEKHG5 (11743358_a_at) / Fold change /veh PLEKHG5 (11743358_a_at) / RFU ZSCAN30 (11745921_a_at) / Fold change /veh ZSCAN30 (11745921_a_at) / RFU CMKLR1 (11741424_a_at) / Fold change /veh CMKLR1 (11741424_a_at) / RFU LOC101060620 /// MAPK8IP1 (11723275_at) / Fold change /veh LOC101060620 /// MAPK8IP1 (11723275_at) / RFU SPTSSB (11747773_x_at) / Fold change /veh SPTSSB (11747773_x_at) / RFU PRSS12 (11739890_at) / Fold change /veh PRSS12 (11739890_at) / RFU BIN1 (11741810_x_at) / Fold change /veh BIN1 (11741810_x_at) / RFU WNT11 (11732464_a_at) / Fold change /veh WNT11 (11732464_a_at) / RFU C10orf10 (11716521_a_at) / Fold change /veh C10orf10 (11716521_a_at) / RFU C5orf56 (11738089_at) / Fold change /veh C5orf56 (11738089_at) / RFU CYB561 (11721691_x_at) / Fold change /veh CYB561 (11721691_x_at) / RFU ANKRD19P (11752326_a_at) / Fold change /veh ANKRD19P (11752326_a_at) / RFU OR2T12 /// OR2T33 /// OR2T8 (11738714_s_at) / Fold change /veh OR2T12 /// OR2T33 /// OR2T8 (11738714_s_at) / RFU VCAN (11748164_a_at) / Fold change /veh VCAN (11748164_a_at) / RFU JSRP1 (11732532_at) / Fold change /veh JSRP1 (11732532_at) / RFU KRTAP10-11 (11738290_x_at) / Fold change /veh KRTAP10-11 (11738290_x_at) / RFU MYO3A (11730013_a_at) / Fold change /veh MYO3A (11730013_a_at) / RFU EBF3 (11725865_a_at) / Fold change /veh EBF3 (11725865_a_at) / RFU CAMK2N1 (11719241_x_at) / Fold change /veh CAMK2N1 (11719241_x_at) / RFU C5orf56 (11738088_a_at) / Fold change /veh C5orf56 (11738088_a_at) / RFU OLFML3 (11715873_a_at) / Fold change /veh OLFML3 (11715873_a_at) / RFU LOC100653217 /// NTM (11731650_a_at) / Fold change /veh LOC100653217 /// NTM (11731650_a_at) / RFU MAPK11 (11762145_a_at) / Fold change /veh MAPK11 (11762145_a_at) / RFU FIZ1 (11724087_x_at) / Fold change /veh FIZ1 (11724087_x_at) / RFU OASL (11726364_x_at) / Fold change /veh OASL (11726364_x_at) / RFU SOX15 (11748057_x_at) / Fold change /veh SOX15 (11748057_x_at) / RFU CD79A (11719716_a_at) / Fold change /veh CD79A (11719716_a_at) / RFU HIST1H1D (11736915_at) / Fold change /veh HIST1H1D (11736915_at) / RFU CASKIN2 (11723855_a_at) / Fold change /veh CASKIN2 (11723855_a_at) / RFU LOC730098 (11760151_x_at) / Fold change /veh LOC730098 (11760151_x_at) / RFU OR4N2 (11742367_at) / Fold change /veh OR4N2 (11742367_at) / RFU PRRT2 (11749266_a_at) / Fold change /veh PRRT2 (11749266_a_at) / RFU SNX32 (11753110_a_at) / Fold change /veh SNX32 (11753110_a_at) / RFU CDHR5 (11726645_a_at) / Fold change /veh CDHR5 (11726645_a_at) / RFU RCAN1 (11760418_a_at) / Fold change /veh RCAN1 (11760418_a_at) / RFU FAM167A (11723789_a_at) / Fold change /veh FAM167A (11723789_a_at) / RFU FAM26E (11764081_at) / Fold change /veh FAM26E (11764081_at) / RFU ISYNA1 (11749810_s_at) / Fold change /veh ISYNA1 (11749810_s_at) / RFU ACY1 (11761880_at) / Fold change /veh ACY1 (11761880_at) / RFU 11764098_at / Fold change /veh 11764098_at / RFU SAMD14 (11745864_x_at) / Fold change /veh SAMD14 (11745864_x_at) / RFU NPB (11741838_a_at) / Fold change /veh NPB (11741838_a_at) / RFU TMPRSS6 (11731388_a_at) / Fold change /veh TMPRSS6 (11731388_a_at) / RFU KRTAP10-2 (11738614_at) / Fold change /veh KRTAP10-2 (11738614_at) / RFU ARHGAP8 /// PRR5-ARHGAP8 (11727945_x_at) / Fold change /veh ARHGAP8 /// PRR5-ARHGAP8 (11727945_x_at) / RFU KRTAP5-7 /// NADSYN1 (11734609_at) / Fold change /veh KRTAP5-7 /// NADSYN1 (11734609_at) / RFU RASL12 (11751679_a_at) / Fold change /veh RASL12 (11751679_a_at) / RFU CDKN2B (11736163_a_at) / Fold change /veh CDKN2B (11736163_a_at) / RFU PRF1 (11729649_at) / Fold change /veh PRF1 (11729649_at) / RFU, ZNF638 /// ZNF638-IT1 / Fold change vs veh, ZNF638 /// ZNF638-IT1 / RFU, PANK3 / Fold change vs veh, PANK3 / RFU, SH3YL1 / Fold change vs veh, SH3YL1 / RFU, ZEB2 / Fold change vs veh, ZEB2 / RFU, NRIP1 / Fold change vs veh, NRIP1 / RFU, PTTG1IP / Fold change vs veh, PTTG1IP / RFU, CAPN2 / Fold change vs veh, CAPN2 / RFU, MED14 / Fold change vs veh, MED14 / RFU, SNORA58 / Fold change vs veh, SNORA58 / RFU, C1orf63 / Fold change vs veh, C1orf63 / RFU, LRRFIP1 / Fold change vs veh, LRRFIP1 / RFU, NDUFAF7 / Fold change vs veh, NDUFAF7 / RFU, SLC12A2 / Fold change vs veh, SLC12A2 / RFU, IBTK / Fold change vs veh, IBTK / RFU, ESF1 / Fold change vs veh, ESF1 / Fold change vs veh, TMEM50B / RFU, TAOK1 / Fold change vs veh, TAOK1 / RFU, ACBD3 / Fold change vs veh, ACBD3 / RFU, TMA16 / Fold change vs veh, TMA16 / RFU, RWDD3 / Fold change vs veh, RWDD3 / RFU, BCAT1 / Fold change vs veh, BCAT1 / RFU, EDEM3 / Fold change vs veh, EDEM3 / RFU, TMEM33 / Fold change vs veh, TMEM33 / RFU, WDR75 / Fold change vs veh, WDR75 / RFU, AHCTF1 / Fold change vs veh, AHCTF1 / RFU, TFRC / Fold change vs veh, TFRC / RFU, ZDHHC17 / Fold change vs veh, ZDHHC17 / RFU, NOM1 / Fold change vs veh, NOM1 / RFU, ARL8B / Fold change vs veh, ARL8B / RFU, ZBTB11 / Fold change vs veh, ZBTB11 / RFU, TAMM41 / Fold change vs veh, TAMM41 / RFU, KIAA1704 /// LOC100996395 / Fold change vs veh, KIAA1704 /// LOC100996395 / RFU, ING1 / Fold change vs veh, ING1 / RFU, TRMT61B / Fold change vs veh, TRMT61B / RFU, FUBP3 / Fold change vs veh, FUBP3 / RFU, TP53 / Fold change vs veh, TP53 / RFU, TNKS2 / Fold change vs veh, TNKS2 / RFU, ZFP14 / Fold change vs veh, ZFP14 / RFU, ACTR2 / Fold change vs veh, ACTR2 / RFU, PPP3R1 / Fold change vs veh, PPP3R1 / RFU, PIK3R1 / Fold change vs veh, PIK3R1 / RFU, HNRNPA1 / Fold change vs veh, HNRNPA1 / RFU, RNF170 / Fold change vs veh, RNF170 / RFU, ZNF28 / Fold change vs veh, ZNF28 / RFU, RNGTT / Fold change vs veh, RNGTT / RFU, OGT / Fold change vs veh, OGT / RFU, BRD1 / Fold change vs veh, BRD1 / RFU, MARS / Fold change vs veh, MARS / RFU, ZNF655 / Fold change vs veh, ZNF655 / RFU, FAHD1 / Fold change vs veh, FAHD1 / RFU, BDP1 / Fold change vs veh, BDP1 / RFU, LRRCC1 / Fold change vs veh, LRRCC1 / RFU, ARID1A / Fold change vs veh, ARID1A / RFU, ZNF146 / Fold change vs veh, ZNF146 / RFU, ZNF330 / Fold change vs veh, ZNF330 / RFU, GPN3 / Fold change vs veh, GPN3 / RFU, C9orf123 / Fold change vs veh, C9orf123 / RFU, N4BP2L2 / Fold change vs veh, N4BP2L2 / RFU, ARFIP1 / Fold change vs veh, ARFIP1 / RFU, FAM179B / Fold change vs veh, FAM179B / RFU, BCL10 / Fold change vs veh, BCL10 / RFU, UHRF1BP1L / Fold change vs veh, UHRF1BP1L / RFU, BET1 / Fold change vs veh, BET1 / RFU, CNOT2 / Fold change vs veh, CNOT2 / RFU, ZNF268 / Fold change vs veh, ZNF268 / Fold change vs veh, ZNF507 / RFU, DGCR2 / Fold change vs veh, DGCR2 / RFU, WDSUB1 / Fold change vs veh, WDSUB1 / Fold change vs veh, HSP90B1 /// MIR3652 / RFU, ADSS / Fold change vs veh, ADSS / RFU, GK / Fold change vs veh, GK / RFU, ZNF148 / Fold change vs veh, ZNF148 / RFU, TAF9 / Fold change vs veh, TAF9 / RFU, SLC1A5 / Fold change vs veh, SLC1A5 / RFU, SLMO2 / Fold change vs veh, SLMO2 / RFU, ABCC4 / Fold change vs veh, ABCC4 / RFU, LOC101060439 /// RAP1B / Fold change vs veh, LOC101060439 /// RAP1B / RFU, RFX7 / Fold change vs veh, RFX7 / RFU, GTPBP10 / Fold change vs veh, GTPBP10 / RFU, CNEP1R1 / Fold change vs veh, CNEP1R1 / RFU, BIVM-ERCC5 /// ERCC5 / Fold change vs veh, BIVM-ERCC5 /// ERCC5 / RFU, ILF3 / Fold change vs veh, ILF3 / RFU 11762660_at / Fold change /veh 11762660_at / RFU VCAN (11757783_s_at) / Fold change /veh VCAN (11757783_s_at) / RFU DDX43 (11728927_at) / Fold change /veh DDX43 (11728927_at) / RFU KRT8 (11758188_x_at) / Fold change /veh KRT8 (11758188_x_at) / RFU NKD1 (11759106_at) / Fold change /veh NKD1 (11759106_at) / RFU SRD5A1 (11742802_a_at) / Fold change /veh SRD5A1 (11742802_a_at) / RFU TPSAB1 /// TPSB2 (11721975_s_at) / Fold change /veh TPSAB1 /// TPSB2 (11721975_s_at) / RFU GSTM3 (11746129_a_at) / Fold change /veh GSTM3 (11746129_a_at) / RFU IL23R (11737362_x_at) / Fold change /veh IL23R (11737362_x_at) / RFU TMEM51 (11727254_a_at) / Fold change /veh TMEM51 (11727254_a_at) / RFU PIWIL2 (11732686_x_at) / Fold change /veh PIWIL2 (11732686_x_at) / RFU ORM1 (11744905_x_at) / Fold change /veh ORM1 (11744905_x_at) / RFU CCDC152 (11743942_at) / Fold change /veh CCDC152 (11743942_at) / RFU ECM1 (11717891_a_at) / Fold change /veh ECM1 (11717891_a_at) / RFU IL23R (11748794_a_at) / Fold change /veh IL23R (11748794_a_at) / RFU TNFAIP8L3 (11732012_x_at) / Fold change /veh TNFAIP8L3 (11732012_x_at) / RFU MBOAT4 (11741988_at) / Fold change /veh MBOAT4 (11741988_at) / RFU 11764193_at / Fold change /veh 11764193_at / RFU TMEM53 (11763286_at) / Fold change /veh TMEM53 (11763286_at) / RFU MAGEB2 (11727129_at) / Fold change /veh MAGEB2 (11727129_at) / RFU TMEM200A (11744735_a_at) / Fold change /veh TMEM200A (11744735_a_at) / RFU CCDC152 (11751479_a_at) / Fold change /veh CCDC152 (11751479_a_at) / RFU FAM211A (11726209_a_at) / Fold change /veh FAM211A (11726209_a_at) / RFU RGS16 (11746705_a_at) / Fold change /veh RGS16 (11746705_a_at) / RFU VCAN (11755009_s_at) / Fold change /veh VCAN (11755009_s_at) / RFU RHOB (11743442_s_at) / Fold change /veh RHOB (11743442_s_at) / RFU RGS16 (11720943_a_at) / Fold change /veh RGS16 (11720943_a_at) / RFU RGS16 (11720944_at) / Fold change /veh RGS16 (11720944_at) / RFU, VPS4B / Fold change vs veh, VPS4B / RFU, CREB1 / Fold change vs veh, CREB1 / RFU, DNAJC13 / Fold change vs veh, DNAJC13 / RFU, GNAQ / Fold change vs veh, GNAQ / RFU, CDK5R1 / Fold change vs veh, CDK5R1 / RFU, ZRANB3 / Fold change vs veh, ZRANB3 / RFU, CUL4A / Fold change vs veh, CUL4A / RFU, CCNY / Fold change vs veh, CCNY / RFU, UFL1 / Fold change vs veh, UFL1 / RFU, COG3 / Fold change vs veh, COG3 / RFU, DIAPH2 / Fold change vs veh, DIAPH2 / RFU, SKA2 / Fold change vs veh, SKA2 / RFU, AFF3 / Fold change vs veh, AFF3 / RFU, LMF1 / Fold change vs veh, LMF1 / RFU, IPO11 / Fold change vs veh, IPO11 / RFU, DFFB / Fold change vs veh, DFFB / RFU, FOXP1 / Fold change vs veh, FOXP1 / RFU, CARD8 / Fold change vs veh, CARD8 / RFU, STRN3 / Fold change vs veh, STRN3 / RFU, ADK / Fold change vs veh, ADK / RFU, RASSF2 / Fold change vs veh, RASSF2 / RFU, WIPF1 / Fold change vs veh, WIPF1 / RFU, LARP1B / Fold change vs veh, LARP1B / RFU, RASA1 / Fold change vs veh, RASA1 / RFU, RB1 / Fold change vs veh, RB1 / RFU, PPFIA1 / Fold change vs veh, PPFIA1 / RFU, MAT2A / Fold change vs veh, MAT2A / RFU, CCT5 / Fold change vs veh, CCT5 / RFU, WDR92 / Fold change vs veh, WDR92 / RFU, CUX1 / Fold change vs veh, CUX1 / RFU, TTC7A / Fold change vs veh, TTC7A / RFU, TMEM135 / Fold change vs veh, TMEM135 / RFU, DEPTOR / Fold change vs veh, DEPTOR / RFU, CPM / Fold change vs veh, CPM / RFU, DNAJB6 / Fold change vs veh, DNAJB6 / RFU, CACNA2D3 / Fold change vs veh, CACNA2D3 / RFU, DTX4 / Fold change vs veh, DTX4 / RFU, TFCP2 / Fold change vs veh, TFCP2 / RFU, GMCL1 /// GMCL1P1 / Fold change vs veh, GMCL1 /// GMCL1P1 / RFU, AEBP2 / Fold change vs veh, AEBP2 / RFU, SNHG1 /// SNORD22 /// SNORD25 /// SNORD26 /// SNORD27 /// SNORD28 /// SNORD29 /// SNORD31 / Fold change vs veh, SNHG1 /// SNORD22 /// SNORD25 /// SNORD26 /// SNORD27 /// SNORD28 /// SNORD29 /// SNORD31 / Fold change (Aza/veh), C12orf56 (ProbeSet 11735607_a_at) / Fold change (ACY-1035/veh), C12orf56 (ProbeSet 11735607_a_at) / Fold change (Aza/veh), FGFR1OP (ProbeSet 11751329_s_at) / Fold change (ACY-1035/veh), FGFR1OP (ProbeSet 11751329_s_at) / Fold change (Aza/veh), VPS36 (ProbeSet 11739960_a_at) / Fold change (ACY-1035/veh), VPS36 (ProbeSet 11739960_a_at) / RFU SYPL1 (11715823_x_at) / Fold change /veh SYPL1 (11715823_x_at) / RFU IGFBP7 (11715501_s_at) / Fold change /veh IGFBP7 (11715501_s_at) / RFU REEP3 (11722064_at) / Fold change /veh REEP3 (11722064_at) / RFU IGLL1 (11728026_x_at) / Fold change /veh IGLL1 (11728026_x_at): dose or concentration left out as unconfirmed
Conditions: ProbeSet 11740011_at; LIST B

SMILES: Nc1ccc(-c2cccs2)cc1NC(=O)c1ccc2c(c1)cc(C1CC1)n2CCN1CCOCC1 [ACY-1035]
- RFU, ZFP14: 75.53 RFU
